For eleven compounds, TGI results are on record in PubChem BioAssay (NCI).

Among the test systems are 786-0 renal; A549 NSCLC; CAKI-1 renal; HOP-62 NSCLC; M14 melanoma; MALME-3M melanoma; MCF7 breast; MDA-MB-435; MOLT-4 leukemia; SNB-75 CNS.
What all share (assay): NCI-60 cell line screen, 48 h

The structures appear in SMILES notation.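 A five-concentration, 48-hour dose response in 96-well plates underlies each endpoint, interpolated linearly between surrounding concentrations. TGI: total growth inhibition.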 A value given as a limit tells only on which side of the number the result lay.

Turning to `c1csc(-c2ccc(-c3ccc(-c4cccs4)s3)s2)c1`, the TGI in the experiment on 786-0 renal, with A549 NSCLC, in the experiment on CAKI-1 renal, with HOP-62 NSCLC, in the experiment on M14 melanoma and with MALME-3M melanoma was more than 100 µM in each case. In addition, the TGI in the experiment on MCF7 breast, in the experiment on MDA-MB-435, with MOLT-4 leukemia and in the experiment with SNB-75 CNS was more than 100 µM each time.
Take `CN(C)CCNC(=O)c1cccc2c(NC(CS)C(=O)O)c3ccccc3nc12` (stereo not given): the TGI with 786-0 renal was more than 100 µM; in the experiment with A549 NSCLC, 66.9 µM; in the experiment with CAKI-1 renal it was 57.1 µM; in the experiment with HOP-62 NSCLC, 41.6 µM; with M14 melanoma it was 19.5 µM; with MALME-3M melanoma, 11.3 µM. Also, the TGI worked out at 29.5 µM in the experiment on MCF7 breast, 21 µM in the experiment with MDA-MB-435, 44.3 µM in the experiment with MOLT-4 leukemia and 38.5 µM in the experiment with SNB-75 CNS.
As for `CCCCC(=C=C1CCCCC1O)C1CCCN1C(=O)OC(C)(C)C` (stereo not given), the TGI in the experiment on 786-0 renal turned out to be 29.6 µM; with A549 NSCLC it was 29.3 µM; in the experiment with CAKI-1 renal, 24.4 µM; with HOP-62 NSCLC, 31.7 µM; in the experiment with M14 melanoma, 30.9 µM; with MALME-3M melanoma, 31.6 µM. Also, the TGI came out at 31.6 µM with MCF7 breast, 30.6 µM with MDA-MB-435, 33.5 µM in the experiment with MOLT-4 leukemia and 26.7 µM with SNB-75 CNS.
As to `COC(=O)C(Cc1ccccc1)NC(=O)CCCNC(=O)OCc1ccccc1` (stereo not given), the TGI is more than 100 µM with 786-0 renal; more than 100 µM in the experiment with A549 NSCLC; more than 100 µM in the experiment with CAKI-1 renal; more than 100 µM in the experiment on HOP-62 NSCLC; 32.5 µM in the experiment on M14 melanoma; 82.7 µM in the experiment on MALME-3M melanoma. Further, the TGI with MCF7 breast, in the experiment on MDA-MB-435, with MOLT-4 leukemia and in the experiment with SNB-75 CNS was more than 100 µM each time.
In the case of `C[C@@H](C[C@@H](O)[C@H](O)C(C)(C)O)[C@H]1CC=C2[C@]3(C)[C@H](O)C[C@H]4C(C)(C)[C@H](O)CC[C@]4(C)[C@H]3CC[C@@]21C`, the TGI was determined as 28.2 µM in the experiment with 786-0 renal; 26.4 µM with A549 NSCLC; 30 µM with CAKI-1 renal; 28.5 µM in the experiment on HOP-62 NSCLC; 28.6 µM in the experiment on M14 melanoma; 28 µM in the experiment with MALME-3M melanoma. The TGI came to 36.7 µM in the experiment with MCF7 breast, 31.4 µM with MDA-MB-435, 29.6 µM in the experiment with MOLT-4 leukemia and 39.1 µM with SNB-75 CNS.
Take `O=C(O)c1ccccc1-c1ccccc1C(=O)c1ccccc1`: the TGI with 786-0 renal, in the experiment on A549 NSCLC, with CAKI-1 renal, with HOP-62 NSCLC, with M14 melanoma and in the experiment on MALME-3M melanoma was more than 100 µM in each case. Moreover, the TGI in the experiment on MCF7 breast, with MDA-MB-435, in the experiment on MOLT-4 leukemia and in the experiment on SNB-75 CNS was more than 100 µM in each case.
As for `CC(=O)Oc1ccc2c(c1)c1c(OC(C)=O)c3ccccc3c(OC(C)=O)c1n2Cc1cccc(C)c1`, the TGI was more than 100 µM in the experiment with 786-0 renal; more than 100 µM in the experiment on A549 NSCLC; more than 100 µM in the experiment with CAKI-1 renal; 67.3 µM in the experiment with HOP-62 NSCLC; more than 100 µM in the experiment on M14 melanoma; more than 100 µM with MALME-3M melanoma. Besides, the TGI is more than 100 µM in the experiment with MCF7 breast, more than 100 µM in the experiment on MDA-MB-435, more than 100 µM with MOLT-4 leukemia and 41.6 µM in the experiment on SNB-75 CNS.
On to `CN(Cc1nc2c(N)nc(N)nc2nc1N)c1ccc(C(=O)NC(CCC(=O)O)C(=O)O)cc1` (stereo not given), for which the TGI was more than 100 µM in the experiment with 786-0 renal; more than 100 µM in the experiment on A549 NSCLC; more than 88 µM with CAKI-1 renal; more than 100 µM with HOP-62 NSCLC; more than 100 µM in the experiment on M14 melanoma; more than 100 µM with MALME-3M melanoma. The TGI with MCF7 breast, in the experiment with MDA-MB-435, with MOLT-4 leukemia and in the experiment on SNB-75 CNS was more than 100 µM each time.
Turning to `COc1cc(O)c2c(c1)C(O)C(O)CC1OC1C(=O)/C=C/CC(C)OC2=O` (stereo not given), the TGI was 13.8 µM with 786-0 renal; 67.8 µM in the experiment with A549 NSCLC; 11.5 µM in the experiment with CAKI-1 renal; 44.3 µM in the experiment on HOP-62 NSCLC; 11.8 µM in the experiment on M14 melanoma; 6.91 µM in the experiment on MALME-3M melanoma. For the same compound, the TGI with MCF7 breast is 16.3 µM; in the experiment on MDA-MB-435, 8.31 µM; in the experiment on MOLT-4 leukemia, 17.2 µM; in the experiment with SNB-75 CNS, 24.6 µM.
As to `Cc1cc(S(=O)(=O)NC(=NCC(=O)NN)NN)c(S)cc1Cl`, the TGI in the experiment on 786-0 renal, with A549 NSCLC, with CAKI-1 renal, in the experiment on HOP-62 NSCLC, with M14 melanoma and in the experiment on MALME-3M melanoma was more than 10 µM in each case. Besides, the TGI in the experiment with MCF7 breast, in the experiment on MDA-MB-435, in the experiment on MOLT-4 leukemia and in the experiment with SNB-75 CNS was more than 10 µM throughout.
Consider `COc1cc(/C=C2\C[C@H]3[C@@H]4CC=C5C[C@@H](N6CCCC6)CC[C@]5(C)[C@H]4CC[C@]3(C)[C@H]2OC(C)=O)cc(OC)c1OC`, for which the TGI is 23.3 µM in the experiment with 786-0 renal; 32 µM with A549 NSCLC; 32.6 µM in the experiment with CAKI-1 renal; 29.3 µM in the experiment on HOP-62 NSCLC; 31.9 µM with M14 melanoma; 38.1 µM with MALME-3M melanoma. The TGI in the experiment with MCF7 breast came out at 29.8 µM; in the experiment on MDA-MB-435, 26.8 µM; in the experiment with MOLT-4 leukemia it was 22.5 µM; in the experiment on SNB-75 CNS, 29.4 µM.
